Measured values taken from patent publication US9663458B2, “Diaminoguanidine derivatives and application thereof in preparation of animal growth promoters used in feed” (priority 2014, dated 2017).
Values joined by “and” are separate entries in the source; they are usually repeats but may differ in a detail not shown here. Equal entries are not always repeated. Where two headings read alike, the source gives them in different places.

Experiments:
[1] = test system: yellow feather broilers (female); experiment: Feeding trial (broilers); type: in vivo; details: 20 ppm in feed, 30 days; for Feed conversion efficiency: controls 2.15, 2.11, hydrochloride; for Average daily weight gain: controls 23.7, hydrochloride; for Average weight gain: controls 713, 712, hydrochloride; for Consumption: group of 50, controls 76.6, 75.2, hydrochloride
From the text: 400 1-day-aged, healthy, fast-grown yellow feather broilers (female) in the same growing state and similar in weight were randomly divided into eight groups according to table 5, 50 broilers in each group. Broilers in each group were fed with different dosage of the IST_007 series compounds.

[2] = test system: cherry valley ducks; experiment: Feeding trial (ducks); type: in vivo; details: 20 ppm in basal diet, 30 days; for Average feed conversion efficiency: control 2.16; for Average weight gain: control 55.8
From the text: 800 1-day-old cherry valley ducks were divided into 8 groups, 100 ducks in each group. […] The compounds of IST_007 series can substantially enhance the productivity of the ducks, concluded from the results.

[3] = test system: Riemerella anatipestifer
[4] = test system: Clostridium perfringens; experiment: microbe, parasite or virus in culture; type: cell-based
[5] = test system: Duroc-YorkShire-Landrace crossbred lean pigs; experiment: Feeding trial (pigs); details: 25 mg/kg mixed with feed, 14 days; for Average daily weight gain: controls 0.44, 0.43, hydrochloride; for Feed conversion efficiency: controls 2.13, 2.11, hydrochloride; for Average weight gain: controls 6.2, 6.1, hydrochloride; for Consumption: group of 15, controls 198.3, 192.9, hydrochloride
[6] = read-out: Minimum inhibitory concentration (MIC), strain RA-FS-1308-1, in vitro
[7] = read-out: Minimum inhibitory concentration (MIC), strain RA-GD-1211-D, in vitro
[8] = read-out: Minimum inhibitory concentration (MIC), strain RA-HN-1211-C, in vitro
[9] = read-out: Minimum inhibitory concentration (MIC), strain CP-JM-1208-H, in vitro
[10] = read-out: Minimum inhibitory concentration (MIC), strain CP-JM-1210-B, in vitro
[11] = read-out: Minimum inhibitory concentration (MIC), strain CP-JM-1210-E, in vitro

CC(C)Oc1ccc(C=NNC(=N)NN=Cc2ccc(OC(C)C)cc2)cc1.Cl [IST_007_003, 1,3-bis[(4-isopropoxybenzylidene)amino]guanidine hydrochloride]
Survival rate (%) [1]: 100% | Feed conversion efficiency [1]: 1.86 and 1.82 | Average daily weight gain [1]: 26.3 g and 26.5 g | Average weight gain [1]: 791 g and 795 g | Consumption [1]: 73.7 kg and 72.3 kg | Survival rate (%) [2]: 100% | Average feed conversion efficiency [2]: 2.03 | Average weight gain [2]: 63.6 | MIC [3, 6]: 1.56 µg/mL | MIC [3, 7]: 1.56 µg/mL | MIC [3, 8]: 1.56 µg/mL | MIC [4, 9]: 12.5 µg/mL | MIC [4, 10]: 3.13 µg/mL | MIC [4, 11]: 12.5 µg/mL | Average daily weight gain [5]: 0.56 kg/day and 0.58 kg/day | Feed conversion efficiency [5]: 1.84 and 1.65 | Average weight gain [5]: 7.8 kg and 8.2 kg | Consumption [5]: 215.3 kg and 203.4 kg

CCCCCOc1ccc(C=NNC(=N)NN=Cc2ccc(OCCCCC)cc2)cc1.Cl [IST_007_019, 1,3-bis[(4-pentoxybenzylidene)amino]guanidine hydrochloride]
MIC [3, 6]: > 200 µg/mL | MIC [3, 7]: 0.39 µg/mL | MIC [3, 8]: > 200 µg/mL | MIC [4, 9]: > 200 µg/mL | MIC [4, 10]: > 200 µg/mL | MIC [4, 11]: > 200 µg/mL

CCCCOc1ccc(C=NNC(=N)NN=Cc2ccc(OCCCC)cc2)cc1.Cl [IST_007_005, 1,3-bis[(4-butoxybenzylidene)amino]guanidine hydrochloride]
Survival rate (%) [1]: 100% | Feed conversion efficiency [1]: 1.86 and 1.84 | Average daily weight gain [1]: 26.5 g and 26.2 g | Average weight gain [1]: 796 g and 787 g | Consumption [1]: 74.1 kg and 72.5 kg | Survival rate (%) [2]: 100% | Average feed conversion efficiency [2]: 2.07 | Average weight gain [2]: 62.4 | MIC [3, 6]: 1.56 µg/mL | MIC [3, 7]: 1.56 µg/mL | MIC [3, 8]: 1.56 µg/mL | MIC [4, 9]: 12.5 µg/mL | MIC [4, 10]: 0.78 µg/mL | MIC [4, 11]: 25 µg/mL

COc1ccc(/C=N/NC(=N)N/N=C/c2ccc(OC)cc2)cc1.Cl [IST_007_001, 1,3-bis[(4-methoxybenzylidene)amino]guanidine hydrochloride]
Survival rate (%) [1]: 100% | Feed conversion efficiency [1]: 1.88 and 1.91 | Average daily weight gain [1]: 25.5 g and 25.8 g | Average weight gain [1]: 764 g and 775 g | Consumption [1]: 71.7 kg and 73.8 kg | Survival rate (%) [2]: 100% | Average feed conversion efficiency [2]: 2.01 | Average weight gain [2]: 62.1 | MIC [3, 6]: 6.25 µg/mL | MIC [3, 7]: 3.13 µg/mL | MIC [3, 8]: 3.13 µg/mL | MIC [4, 9]: 12.5 µg/mL | MIC [4, 10]: 1.56 µg/mL | MIC [4, 11]: 50 µg/mL

CCCCCCCCOc1ccc(C=NNC(=N)NN=Cc2ccc(OCCCCCCCC)cc2)cc1.Cl [IST_007_020, 1,3-bis[(4-octoxybenzylidene)amino]guanidine hydrochloride]
MIC [3, 6]: > 200 µg/mL | MIC [3, 7]: > 200 µg/mL | MIC [3, 8]: > 200 µg/mL | MIC [4, 9]: > 200 µg/mL | MIC [4, 10]: > 200 µg/mL | MIC [4, 11]: > 200 µg/mL

CCOc1ccc(C=NNC(=N)NN=Cc2ccc(OCC)cc2)cc1.Cl [IST_007_002, 1,3-bis[(4-ethoxybenzylidene)amino]guanidine hydrochloride]
MIC [3, 6]: > 100 µg/mL | MIC [3, 7]: > 100 µg/mL | MIC [3, 8]: > 100 µg/mL | MIC [4, 9]: > 100 µg/mL | MIC [4, 10]: 0.2 µg/mL | MIC [4, 11]: > 100 µg/mL

Cl.N=C(NN=Cc1ccc(OC2CCCC2)cc1)NN=Cc1ccc(OC2CCCC2)cc1 [IST_007_024, 1,3-bis[(4-cyclopentoxybenzylidene)amino]guanidine hydrochloride]
Survival rate (%) [2]: 100% | Average feed conversion efficiency [2]: 2.09 | Average weight gain [2]: 63.1 | MIC [3, 6]: 0.39 µg/mL | MIC [3, 7]: 0.78 µg/mL | MIC [3, 8]: 0.39 µg/mL | MIC [4, 9]: 1.56 µg/mL | MIC [4, 10]: 1.56 µg/mL | MIC [4, 11]: 3.13 µg/mL

CCC(C)Oc1ccc(C=NNC(=N)NN=Cc2ccc(OC(C)CC)cc2)cc1.Cl (centres unmarked) [IST_007_022, 1,3-bis[(4-sec-butoxybenzylidene)amino]guanidine hydrochloride]
Survival rate (%) [2]: 100% | Average feed conversion efficiency [2]: 2.08 | Average weight gain [2]: 61.3 | MIC [3, 6]: 1.56 µg/mL | MIC [3, 7]: 0.2 µg/mL | MIC [3, 8]: 1.56 µg/mL | MIC [4, 9]: 12.5 µg/mL | MIC [4, 10]: 12.5 µg/mL | MIC [4, 11]: 12.5 µg/mL

CCCOc1ccc(C=NNC(=N)NN=Cc2ccc(OCCC)cc2)cc1.Cl [IST_007_028, 1,3-bis[(4-propoxybenzylidene)amino]guanidine hydrochloride]
Survival rate (%) [2]: 100% | Average feed conversion efficiency [2]: 2.04 | Average weight gain [2]: 61.6 | MIC ([3]; read-out: Minimum inhibitory concentration (MIC)): 1.56 µg/mL | MIC [3, 7]: 0.39 µg/mL | MIC [3, 8]: 0.39 µg/mL | MIC [4, 9]: 1.56 µg/mL | MIC [4, 10]: 1.56 µg/mL | MIC [4, 11]: 1.56 µg/mL | Average daily weight gain [5]: 0.55 kg/day and 0.52 kg/day | Feed conversion efficiency [5]: 1.75 and 1.85 | Average weight gain [5]: 7.7 kg and 7.3 kg | Consumption [5]: 201.3 kg and 202.5 kg

Cl.N=C(NN=Cc1ccc(OCc2ccccc2)cc1)NN=Cc1ccc(OCc2ccccc2)cc1 [IST_007_025, 1,3-bis[(4-benzyloxybenzylidene)amino]guanidine hydrochloride]
MIC [3, 6]: > 200 µg/mL | MIC [3, 7]: 0.39 µg/mL | MIC [3, 8]: > 200 µg/mL | MIC [4, 9]: > 200 µg/mL | MIC [4, 10]: 100 µg/mL | MIC [4, 11]: > 200 µg/mL

CCC(CC)Oc1ccc(C=NNC(=N)NN=Cc2ccc(OC(CC)CC)cc2)cc1.Cl [IST_007_023, 1,3-bis[[4-(3-pentoxy)benzylidene]amino]guanidine hydrochloride]
Survival rate (%) [2]: 100% | Average feed conversion efficiency [2]: 2.05 | Average weight gain [2]: 62.4 | MIC [3, 6]: 1.56 µg/mL | MIC [3, 7]: 0.78 µg/mL | MIC [3, 8]: 1.56 µg/mL | MIC [4, 9]: 12.5 µg/mL | MIC [4, 10]: 12.5 µg/mL | MIC [4, 11]: 12.5 µg/mL
